Values quoted from earlier work as cited in patent publication US20080185562A1, “Oxalate ester chemiluminescent light system” (Tianjin Dragon Chemiluminescent Tubes Co., Ltd., priority 2007, published 2008).

Key:
[1] = PEG value depends on molecular weight
[2] = system: mus
[3] = system: rats; details: rat
[4] = at 122° C.

SMILES	Flash point (° C./° F.) [1]	Toxicity (LD50 oral, mg/kg) [2]	Toxicity (LD50 oral, mg/kg) [3]	Vapor pressure (kPa) [4] [at 122 °C kPa]
OCCCO [1,3-propylene glycol]	79/174	4,770 (mus) mg/kg		
CCCCOCCOCCOCCCC [dibutyl diethylene glycol ether]	117/243		3,900 (rat) mg/kg	1.33
